Measurements as given in patent US20060047171A1, “Catalytic hydrogenation of nitriles to produce capsaicinoid derivatives and amine compounds, and methods for purifying and obtaining the polymorphs thereof” (priority 2003, published 2006).
Entries after “also recorded” stand apart in the source; their conditions may differ. Like-named read-outs stand apart in the source and are kept apart here.

Key:
[1] = tested on: tail flick response to radiant heat; details: cited from earlier work; for Inhibition (%): mice
[2] = tested on: yeast induced hyperalgesia; assay: Randall-Selitto test; type: in vivo, rat; details: rats, pain threshold of yeast-injected foot
Protocol: Randall-Selitto Test was carried out by following the method described in Arch. Int.
Male albino rats (120-170 g) of the Charles River Sprague-Dawley strain are used. Inflammation is produced by the injection of 0.1 mL of a 20% suspension of Brewer's yeast into the plantar surface of the rat's hind foot.
The pain threshold is measured as the pressure in mm Hg required to induce the desired response (a sharp audible squeak and/or struggle) when the pressure is applied to the foot. Air pressure from an air line is admitted through a needle valve to a 20 mL glass syringe and to a pressure gauge connected by a T-tube. The syringe is mounted with the plunger downward to which is connected a short bullet-shaped Teflon peg. The pressure is applied to the foot of the rat at the rate of 10 mmHg per second. Drug is given 2 hours after the yeast injection. Two hours after the drug administration, threshold response is determined.
The analgesic activity was determined in terms of the percentage of inhibition of response: Inhibition (%)=(TTG−TCG)/TCG×100, where TTG is the Threshold of Treated Group, and TCG is the Threshold of the Control Group.

[3] = Qualitative solubility of DA-5018 in common solvents; type: physicochemical
Protocol: In order to show which solvents or solvent/antisolvent combinations are appropriate for crystallization studies, the solubility of DA-5018 in twelve solvents was qualitatively evaluated on a 500 mg-scale. In these experiments, DA-5018 was suspended in 5 volumes of the appropriate solvent and stirred at ambient temperature, then incrementally heated until a complete solubilization was achieved.

[4] = Solubility curve / metastable zone width in methanol/water (1:1.25, v/v); type: physicochemical
Protocol: A standard procedure to determine the width of the metastable zone was used to determine the solubility curves of DA-5018 in methanol/water (1:1.25, v/v). In this procedure, DA-5018 (2.0 g) was suspended in 15 mL (7.5 vol) of methanol/water (1:1.25, v/v) and heated until all solids were dissolved (approximately 55° C.). The resulting solution was then very slowly cooled at a fixed rate of 0.2° C./min and the nucleation temperature recorded. The mixture was slowly reheated and the temperature of complete dissolution recorded. The solution was then iteratively diluted with a known volume of solvent and the nucleation as well as the dissolution points recorded at gradually lower concentrations to provide additional data points on the saturation curve as well as on the solubility curve. By definition, for a given concentration, the distance between the solubility curve and the saturation curve provides the metastable zone width (MSZW), in which crystal growth can be achieved upon careful seeding and controlled cooling, antisolvent addition, evaporation or pH adjustment, depending on the chosen crystallization conditions. Such a protocol is often crucial in maximizing crystal growth and curbing spontaneous, secondary nucleation that leads to uncontrolled crystallization.

[5] = Hygroscopicity by dynamic vapor sorption (DVS); type: physicochemical; details: for hygroscopicity (in words): DVS, conditions up to 90% RH
Protocol: Dynamic vapor sorption analysis (DVS) was at times performed on the sample “as is”. Samples were placed in sample pan and underwent a 2-hour drying in a dry nitrogen stream. The samples were then analyzed under the following conditions:
Isothermal Sequence: • Adsorption: 10-90% RH; step size 10% • Desorption: 85-0% RH; step size 10%
Each RH point was obtained after the weight loss curve reached an asymptote. After the isotherm was complete, the sample was heated to 80° C. until the weight loss curve reached an asymptote or for 4 hours maximum.
Hygroscopicity studies were conducted by DVS on both the original Form I (FIG. 4) and the thermally converted Form II (FIG. 5) of DA-5018. […] In an attempt to further evaluate the physical form of the dihydrate, a second sample of DA-5018 was converted to the dihydrate by exposing the material to 85% RH overnight in the DVS instrument.

[6] = Thermal stress experiments (DSC and XRPD), interconversion of forms; type: physicochemical
Protocol: To further evaluate these observations, DSC thermograms were obtained for select compounds at various ramping rates to evaluate interconversion of forms, as shown in FIGS. 2(a)-2(c) and 3(a)-3(c). FIGS. 2(a)-2(c) show the conversion of Form I to Form II. The conversion is most readily observed in FIG. 2(a), as conversion was more difficult to observe at the faster ramp rates. […] Additionally, isothermal heating experiments were performed with evaluation by DSC and XRPD to confirm any change of form, as shown in FIGS. 2(d)-2(f) and 3(d)-(f) and Table 3. FIGS. 2(e) and 3(e) show the original XRPD for Forms I and IV, respectively, while FIGS. 2(f) and 3(f) show the XRPD of Form II, formed after thermal conversion.

[7] = tested on: adjuvant induced hyperalgesia; details: 5 mg/Kg; rats; DA-5018 perorally two hours before tail-pinch testing; cited from earlier work

Molecule: 3-(3,4-Dimethylphenyl)acrylonitrile [Example 1]
- Inhibition (%) ([1]; 0.5 mg/Kg s. c.): 50%
- Inhibition (%) ([1]; 1.0 mg/Kg s. c.): 70%

Molecule: CC(=O)Oc1ccccc1C(=O)O [Aspirin]
- Inhibition (%) ([2]; 100 mg/Kg s. c.): 80.1%
- Inhibition (%) ([1]; 100 mg/Kg p. o.): 0%

Molecule: COc1cc(CNC(=O)CCCC/C=C/C(C)C)ccc1O [Capsaicin, trans-8-methyl-N-vanillyl-6-nonenamide]
- Inhibition (%) ([1]; 25 mg/Kg, route not given): 90%

Molecule: COc1cc(CC(=O)NCCCc2ccc(C)c(C)c2)ccc1OCCN [DA-5018, 2-[4-(2-aminoethoxy)-3-methoxyphenyl]-N-[3-(3,4-dimethylphenyl)propyl]acetamide]
- Inhibition (%) ([2]; 5 mg/Kg p. o.): 247.4%
- solubility (in words) ([3]; MEK, MIBK, EtOAc, IPAc and acetonitrile): sparingly soluble
- solubility (in words) ([3]; methanol at 50° C.): freely soluble
- solubility (in words) ([3]; methyl tert-butyl ether (MTBE), even at reflux): limited solubility
- DA-5018 Solubility Trend ([3]; ranking of solvents, 500 mg-scale, 5 volumes of solvent, ambient temperature then incrementally heated): Acetone >> Methanol > THF > Ethanol, 1-Propanol > 2-; also recorded: Propanol> MEK > MIBK > CH3CN, EtOAc, IPAc >> MTBE >>> Water
- Nucleation Temperature (° C.) ([4]; 2.0 g DA-5018 in 15 mL methanol/water (1:1.25, v/v), cooled at 0.2° C./min): 39.1 °C
- Nucleation Temperature (° C.) ([4]; 2.0 g DA-5018 in 20 mL methanol/water (1:1.25, v/v)): 34.6 °C
- Nucleation Temperature (° C.) ([4]; 2.0 g DA-5018 in 25 mL methanol/water (1:1.25, v/v)): 34.5 °C
- Nucleation Temperature (° C.) ([4]; 2.0 g DA-5018 in 30 mL methanol/water (1:1.25, v/v)): 34.2 °C

Molecule: COc1cc(CC(=O)NCCCc2ccc(C)c(C)c2)ccc1OCCN [Form I, 2-[4-(2-aminoethoxy)-3-methoxyphenyl]-N-[3-(3,4-dimethylphenyl)propyl]acetamide]
- hygroscopicity (in words) [5]: propensity to absorb moisture
- relative humidity at which moisture is taken up ([5]; less crystalline, or amorphous, samples): approximately 30 % RH
- conversion of form under thermal conditions (in words) ([6]; 10 minutes of isothermal heating near melting point, 105° C.): convert to Form II

Molecule: COc1cc(CC(=O)NCCCc2ccc(C)c(C)c2)ccc1OCCN [Form II, 2-[4-(2-aminoethoxy)-3-methoxyphenyl]-N-[3-(3,4-dimethylphenyl)propyl]acetamide]
- moisture retention upon desorption (in words) ([5]; DVS desorption): did not retain moisture upon desorption
- hygroscopicity (in words) [5]: non-hygroscopic; also recorded: no appreciable hygroscopicity

Molecule: COc1cc(CC(=O)NCCCc2ccc(C)c(C)c2)ccc1OCCN [Form III, 2-[4-(2-aminoethoxy)-3-methoxyphenyl]-N-[3-(3,4-dimethylphenyl)propyl]acetamide]
- relative humidity to which the dihydrate is stable upon desorption ([5]; DVS desorption): ≥ 30 % RH

Molecule: COc1cc(CC(=O)NCCCc2ccc(C)c(C)c2)ccc1OCCN [Form IV, 2-[4-(2-aminoethoxy)-3-methoxyphenyl]-N-[3-(3,4-dimethylphenyl)propyl]acetamide]
- conversion of form under thermal stress / melt (in words) ([6]; DSC at various ramping rates, melt): conversion of Form IV to Form II

Molecule: CN1CC[C@]23c4c5ccc(O)c4O[C@H]2[C@@H](O)C=C[C@H]3[C@H]1C5 [Morphine]
- Inhibition (%) ([2]; 3 mg/Kg s. c.): 391.7%
- activity in the tail flick test (in words) ([1]; mouse, in vivo): active

Molecule: CCCCCCCC/C=C\CCCCCCCC(=O)NCc1ccc(OCCN)c(OC)c1 [NE-21610]
- Inhibition (%) ([1]; 200 mg/Kg p. o.): 50%

Molecule: COc1ccc2cc([C@H](C)C(=O)O)ccc2c1 [Naproxen]
- Analgesic activity (%) [7]: 28.6%

Molecule: CN1C(C(=O)Nc2ccccn2)=C(O)c2ccccc2S1(=O)=O [Piroxicam]
- Inhibition (%) ([1]; 100 mg/Kg p. o.): 0%
